Experimental data reported in US20220402914A1, “Tryptoline-Based Benzothiazoles and their use as Antibiotics and Antibiotic Resistance-Modifying Agents” (The Regents of the University of Colorado, a body corporate, priority 2019, published 2022).
≈ marks a conversion by molar mass, not a printed value. Counter-ions that a name gives are not always drawn. Like-named read-outs stand apart in the source and are kept apart here.

Legend:
[1] = system: MRSA ATCC BAA-44; assay: Minimal inhibitory concentration (MIC), standard broth microdilution; type: cell-based, Staphylococcus aureus; details: for MIC: MRSA BAA-44 strain
Description: (§1) RMA activity of the analogues was tested by assessing their abilities to sensitize MRSA to the antibiotic cefazolin (a first-generation cephalosporin). The well characterized strain MRSA ATCC BAA-44 was tested as previously described. […] The minimal inhibitory concentration (MIC), or the lowest concentration at which S. aureus is considered susceptible to an antibacterial, was determined by the standard broth microdilution method detailed in the CLSI handbook. RMA activity was compared by the ratio of MIC/MRC. The half growth inhibitory concentration (GI50) of each analogue against HeLa cells was determined as previously described. […] The luminescence of each sample was recorded in an Envision Multilabel Plate Reader (Perkin Elmer). Results of MICs and MRCs were confirmed by testing in triplicate. The GI50 assay was performed in duplicate.

[2] = system: MRSA ATCC BAA-44; assay: Minimum re-sensitizing concentration (MRC) in the presence of cefazolin; type: cell-based, Staphylococcus aureus; details: MRSA BAA-44, cefazolin
Description: as §1

[3] = system: HeLa cells; assay: GI50 against HeLa cells, Cell Titer Glo viability assay; type: cell-based, human; details: for GI50: 24 h
Description: as §1

[4] = as above; type: cell-based, human; details: human, HeLa cells, 24 h
Description: as §1

[5] = system: MRSA-252; assay: MIC, scope of antibacterial activity; type: cell-based, S. aureus; details: Staphylococcus aureus
Description: as §1
(§2) Furthermore, we explored the scope of the antibacterial activity of 12g in a panel of MRSA and MSSA strains including BAA-44 (MIC=1 μg/mL), MRSA-252 (MIC=2 μg/mL), B. subtilis NR-607 (MIC=2 μg/mL), E. faecium HM-460 (MIC=4 μg/mL), E. faecium 28977 (MIC=2 μg/mL) and MSSA (MIC=0.5 μg/mL).

[6] = system: MSSA; assay: MIC, scope of antibacterial activity; type: cell-based, S. aureus; details: Staphylococcus aureus
Description: as §1, §2

[7] = system: B. subtilis NR-607; assay: MIC, scope of antibacterial activity; type: cell-based; details: Bacillus subtilis, NR607
Description: as §1, §2

[8] = system: E. faecium 28977; assay: MIC, scope of antibacterial activity; type: cell-based; details: Enterococcus faecium
Description: as §1, §2

[9] = system: E. faecium HM-460; assay: MIC, scope of antibacterial activity; type: cell-based; details: Enterococcus faecium, HM460
Description: as §1, §2

[10] = system: multiple MRSA strains; assay: RMA activity in multiple MRSA strains with cephalosporins; type: cell-based, S. aureus
Description: as §1
We next explored the scope of RMA activity of 4ad in different MRSA strains, including MRSA BAA-1683, MRSA BAA-1764, MRSA NR-46411, NRS-384 and NRS-100. These strains were selected because of their diverse geographical origins, genetic background, and resistance profile. We also tested RMA activity in combination with another commercial antibiotic, cefuroxime, which is a second-generation cephalosporin. MRCs in the presence of cefuroxime were determined using the same method as those for cefazolin.

[11] = Staphylococcus aureus, read-out: MIC

Row | Structure (SMILES) | MIC [1, 11] | RMA activity (in words) [2] | GI50 [3] | also measured
1 | N=C(N)NCC1CN(c2nc3ccc(Cl)cc3s2)Cc2[nH]c3ccc(Cl)cc3c21 (racemic) [Compound 12g, 1-((6-chloro-2-(6-chlorobenzo[d]thiazol-2-yl)-2,3,4,9-tetrahydro-1H-pyrido[3,4-b]indol-4-yl)methyl)guanidine hydrochloride] | – | – | – | MIC ([1]; hydrochloride): 1 µg/mL; MIC ([1]; Staphylococcus aureus): 2 µg/mL; GI50 at 24 h [4]: 14.1 µg/mL; MIC [5]: 2 µg/mL; MIC [6]: 0.5 µg/mL; MIC [7]: 2 µg/mL; MIC [8]: 2 µg/mL; MIC [9]: 4 µg/mL
2 | Clc1ccc2nc(N3CCc4c([nH]c5ccc(Cl)cc45)C3)sc2c1 [Compound 4a, 6-Chloro-2-(6-chloro-1,3-benzothiazol-2-yl)-2,3,4,9-tetrahydro-1H-pyrido[3,4-b]indole] | > 64 µg/mL | – | 13.2 µg/mL (≈ 35.3 µM) | RMA activity (ratio of MIC/MRC) [2]: 32 fold
3 | Nc1cc(Cl)c2nc(N3CCc4c([nH]c5ccc(Cl)cc45)C3)sc2c1 [Compound 4ad, 4-Chloro-2-(6-chloro-1,3,4,9-tetrahydro-2H-pyrido[3,4-b]indol-2-yl)-1,3-benzothiazol-6-amine] | – | good RMA activities | > 100 µg/mL | MIC [1]: >32 µg/mL; potentiation of antibiotics (in words) ([10]; five MRSA strains, cefazolin and cefuroxime): potentiates both antibiotic cefazolin and cefuroxime; concentration that re-sensitizes multiple MRSA strains to cephalosporins ([10]; multiple MRSA strains, cephalosporins): 2 µg/mL
4 | FC(F)(F)c1cccc2sc(N3CCc4c([nH]c5ccc(Cl)cc45)C3)nc12 [Compound 4af, 6-Chloro-2-[4-(trifluoromethyl)-1,3-benzothiazol-2-yl]-2,3,4,9-tetrahydro-1H-pyrido[3,4-b]indole] | > 32 µg/mL | good RMA activities | 8 µg/mL (≈ 19.6 µM) | worse GI50 relative to 4w [3]: 3 fold
5 | CNc1cc(C(F)(F)F)c2nc(N3CCc4c([nH]c5ccc(Cl)cc45)C3)sc2c1 [Compound 4ai, 2-(6-Chloro-1,3,4,9-tetrahydro-2H-pyrido[3,4-b]indol-2-yl)-N-methyl-4-(trifluoromethyl)-1,3-benzothiazol-6-amine] | > 32 µg/mL | good RMA activities | 15.4 µg/mL (≈ 35.2 µM) | –
6 | COC(=O)C1Cc2c([nH]c3ccc(Cl)cc23)CN1c1nc2ccc(Cl)cc2s1 (stereo not shown) [Compound 4m, Methyl 6-chloro-2-(6-chloro-1,3-benzothiazol-2-yl)-2,3,4,9-tetrahydro-1H-pyrido[3,4-b]indole-3-carboxylate] | > 64 µg/mL | abolished | – | –
7 | FC(F)(F)Oc1ccc2nc(N3CCc4c([nH]c5ccc(Cl)cc45)C3)sc2c1 [Compound 4t, 6-Chloro-2-[6-(trifluoromethoxy)-1,3-benzothiazol-2-yl]-2,3,4,9-tetrahydro-1H-pyrido[3,4-b]indole] | – | lost the RMA activity completely | 7.3 µg/mL (≈ 17.2 µM) | MIC [1]: 1 µg/mL (≈ 2.36 µM)
8 | Clc1ccc2sc(N3CCc4c([nH]c5ccc(Cl)cc45)C3)nc2c1 [Compound 4v, 6-Chloro-2-(5-chloro-1,3-benzothiazol-2-yl)-2,3,4,9-tetrahydro-1H-pyrido[3,4-b]indole] | – | no RMA activity | – | –

Continued, in another order:

Row | MIC [1, 11] | Structure (SMILES) | RMA activity (in words) [2] | GI50 [3] | also measured
9 | > 32 µg/mL | COC(=O)C1CN(c2nc3ccc(Cl)cc3s2)Cc2[nH]c3ccc(Cl)cc3c21 (racemic) [Compound 4n, Methyl 6-chloro-2-(6-chlorobenzo[d]thiazol-2-yl)-2,3,4,9-tetrahydro-1H-pyrido[3,4-b]indole-4-carboxylate] | without compromising the RMA activity | 6.6 µg/mL (≈ 15.3 µM) | RMA activity (ratio of MIC/MRC) [2]: 32 fold
10 | 32 µg/mL (≈ 76.5 µM) | O=C(O)C1CN(c2nc3ccc(Cl)cc3s2)Cc2[nH]c3ccc(Cl)cc3c21 (racemic) [Compound 8, 6-Chloro-2-(6-chlorobenzo[d]thiazol-2-yl)-2,3,4,9-tetrahydro-1H-pyrido[3,4-b]indole-4-carboxylic acid] | significantly decreased or abolished the RMA activity | 65 µg/mL (≈ 155 µM) | –
11 | > 64 µg/mL | Clc1ccc2[nH]c3c(c2c1)CCN(c1nc2ccc(Br)cc2s1)C3 [Compound 4p, 2-(6-Bromo-1,3-benzothiazol-2-yl)-6-chloro-2,3,4,9-tetrahydro-1H-pyrido[3,4-b]indole] | retained the RMA activity | 5.1 µg/mL (≈ 12.2 µM) | –
12 | > 64 µg/mL | FC(F)(F)c1ccc2nc(N3CCc4c([nH]c5ccc(Cl)cc45)C3)sc2c1 [Compound 4s, 6-Chloro-2-[6-(trifluoromethyl)-1,3-benzothiazol-2-yl]-2,3,4,9-tetrahydro-1H-pyrido[3,4-b]indole] | – | 4.6 µg/mL (≈ 11.3 µM) | increase of RMA activity relative to 4a [2]: 4 fold
13 | 4 µg/mL (≈ 10.7 µM) | Clc1ccc2[nH]c3c(c2c1)CCN(c1nc2cccc(Cl)c2s1)C3 [Compound 4u, 6-Chloro-2-(7-chloro-1,3-benzothiazol-2-yl)-2,3,4,9-tetrahydro-1H-pyrido[3,4-b]indole] | reduced RMA activity | 6.7 µg/mL (≈ 17.9 µM) | MIC (in words) ([1]; MRSA BAA-44): increased MIC
14 | > 64 µg/mL | Clc1ccc2[nH]c3c(c2c1)CCN(c1nc2c(Cl)cccc2s1)C3 [Compound 4w, 6-Chloro-2-(4-chloro-1,3-benzothiazol-2-yl)-2,3,4,9-tetrahydro-1H-pyrido[3,4-b]indole] | maintained similar RMA activity | 27.7 µg/mL (≈ 74 µM) | –
